Data from a compilation of properties of binary mixtures (doi:10.1007/s10973-018-7399-0).

Experiment: xn = mol fraction of the nth substance listed
Conditions: 93.2 kPa

CC(=O)[O-].CCCC[NH3+] + CCO
Conditions | speed of sound, 293.15 K [m/s] | speed of sound, 298.15 K [m/s] | speed of sound, 303.15 K [m/s] | speed of sound, 308.15 K [m/s] | speed of sound, 313.15 K [m/s] | viscosity, 293.15 K [mPa·s] | viscosity, 298.15 K [mPa·s] | viscosity, 303.15 K [mPa·s] | viscosity, 308.15 K [mPa·s] | viscosity, 313.15 K [mPa·s]
x1 = 0.0501 | 1196.2 | 1179.2 | – | 1145.8 | – | 1.96 | 1.76 | – | 1.44 | –
x1 = 0.0992 | 1225.1 | 1208.3 | 1191.7 | 1175.2 | 1158.9 | 2.97 | 2.65 | 2.37 | 2.13 | 1.93
x1 = 0.15 | – | 1234.9 | 1218.5 | 1202.1 | – | – | 3.94 | 3.5 | 3.11 | –
x1 = 0.2001 | – | 1258.4 | 1242.1 | 1225.9 | – | – | 5.77 | 5.08 | 4.49 | –
x1 = 0.2511 | 1296.4 | 1280.1 | 1263.9 | 1247.8 | 1231.9 | 9.6 | 8.32 | 7.24 | 6.34 | 5.58
x1 = 0.3001 | – | 1299 | 1282.9 | 1266.9 | – | – | 11.6 | 10 | 8.67 | –
x1 = 0.35 | 1332.8 | 1316.6 | 1300.6 | – | 1269 | 19.2 | 16.3 | 13.9 | – | 10.3
x1 = 0.3999 | 1349.1 | – | 1317.1 | – | 1285.6 | 26.7 | – | 18.9 | – | 13.9
x1 = 0.4483 | 1363.2 | 1347.1 | 1331.2 | 1315.5 | – | 36.5 | 30.3 | 25.4 | 21.4 | –
x1 = 0.4987 | – | 1361 | 1345.2 | 1329.5 | 1314.1 | – | 41.2 | 34.1 | 28.4 | 24
x1 = 0.5503 | 1390.1 | – | 1358.3 | 1342.7 | 1327.3 | 69.5 | – | 45.9 | 37.9 | 31.6
x1 = 0.6002 | 1402 | – | 1370.2 | 1354.6 | 1339.2 | 94 | – | 60.7 | 49.5 | 40.9
x1 = 0.6511 | 1413.7 | 1397.6 | 1381.7 | 1366.1 | – | 128 | 101.1 | 80.6 | 65 | –
x1 = 0.7008 | – | – | 1392.4 | 1376.8 | 1361.4 | – | – | 106 | 84.2 | 68.1
x1 = 0.7495 | – | – | 1402.4 | 1386.7 | 1371.3 | – | – | 138 | 109 | 86.6
x1 = 0.7988 | – | 1428.3 | 1412.2 | 1396.3 | 1380.9 | – | 235 | 180 | 140 | 110
x1 = 0.8496 | – | – | 1421.9 | – | 1390.4 | – | – | 238 | – | 141
x1 = 0.9015 | 1466 | 1448.3 | 1431.5 | 1415.3 | 1399.6 | 585 | 424 | 313 | 236 | 181
x1 = 0.9493 | 1476.4 | 1457.8 | 1440.5 | 1423.9 | – | 797 | 566 | 412 | 305 | –
x1 = 1 | 1488 | 1468.3 | – | 1433 | 1416.7 | 1103 | 765 | – | 397 | 295
